From patent publication US6767738B1, “Method of isolating adult mammalian CNS-derived progenitor stem cells using density gradient centrifugation” (The Salk Institute for Biological Studies, priority 1999, dated 2004) come the findings set out here.

Assay [1] relates to c-fos mRNA (Trk receptor tyrosine kinase signaling). The experiment in a line: RT-PCR analysis of neurotrophin-dependent c-fos induction. The class given is cell-based, rat. Particulars: pretreatment with RA for 6 days. How it is done:
Cell Culture. For proliferating conditions, clonal stem cells (AP14) were cultured in Dulbecco's Modified Eagles Medium/Ham's F12 (DMEM/F12, 1:1) containing N2 supplement (Gibco BRL, Gaithersburg, Md.) and 20 ng/ml rhFGF-2 (provided by A. Baird, Prizm Pharmaceuticals Inc., La Jolla, Calif.). Culture dishes (Becton Dickinsin Labware, Lincoln Park, N.J.) were coated with polyomithine and mouse laminin as previously described by Ray, et al., Proliferation, differentiation and long-term culture of primary hippocampal neurons, Proc Natl Acad Sci USA 90:3602-3606 (1993). For differentiation experiments, cells were plated into polyornithine/laminin coated glass chamber slides (Nunc, Naperville, Ill.) at a density of 2.5—103 per cm2. The cells were incubated for 24 hrs in normal N2 medium containing 20 ng/ml FGF-2, and then the medium was replaced by N2 medium containing 0.5% […] (FBS) and 0.01% DMSO (control solvent) or […] all-trans retinoic acid (Sigma, St. Louis, Mo.). For further differentiation, the medium was replaced by N2 medium containing 0.5% FBS and one of the following: sterile water (control solvent), mouse 2.55 NGF (50 ng/ml, Boehringer Mannheim, Indianapolis, Ind.), rhBDNF (20 ng/ml, Alomone Labs, Jerusalem, Israel), rhNT-3 (40 ng/ml, Genentech, South San Francisco, Calif.). The medium was replaced every two days. For inhibition of the tyrosine kinase activity of the Trk receptors, K-252a (100 nM, Calbiochem, San Diego, Calif.) was added to the medium.
Reverse Transcription-PCR Analysis. Total RNA from stem cells was isolated using RNeasy Total RNA Kits (Qiagen, Chatsworth, Calif.) according to manufacturer's instructions. Fifty nanograms of total RNA was reverse transcribed using avian myeloblastosis virus reverse transcriptase (Promega, Madison, Wis.) with random hexamers ([…]) as primers in a […] reaction mixture. For PCR amplification, two sets of specific oligonucleotide pairs ([…]) were used: one directed to the transcript of interest, and one for a constitutively expressed transcript, either ribosomal protein L27 or L27a. Reactions were performed in a […] reaction mixture containing 10 mM Tris-Cl (pH 8.4), 50 mm KCl, 1.5 mM MgC12, […] each of the four dNTPs, 2 mCi of [a-32P]dCTP and 5 units of Taq polymerase (Promega) using a thermal cycler (Perkin-Elmer, Foster City, Calif.) with a regimen of 1 min at 94° C., 2 min at 60° C. (55° C. for trk receptors) and 2 min at 72° C. for 23 cycles Fifty microliters of each reaction was analyzed by electrophoresis on 8% polyacrylamide gels followed by autoradiography. […] Under these conditions, the L27 amplification product was directly proportional to the amount of input RNA, up to 50 ng total RNA. Oligonucleotide primers used are as follows: […]
RA treatment also results in neurotrophin-dependent induction of c-fos. Transient and rapid induction of immediate early genes such as c-fos is a well-characterized response to extracellular stimuli in neural cells. c-fos is induced after neurotrophin treatment in cultured […] hippocampal or cortical cells and the signaling cascade following c-fos induction is considered to be integral to subsequent steps in differentiation. To determine whether upregulation of mRNAs for trk receptors and p75NGFR observed in the stem cell cultures results in the acquisition of functional Trk-dependent stimulation of c-fos, mRNA was examined by RT-PCR analysis after stimulating RA-treated cells with neurotrophins. […]

Assay [2] relates to optic nerve low-buoyancy cells. The experiment in a line: Neuron generation from optic nerve low-buoyancy cells. The class given is cell-based, rat. Particulars: 14 days high FGF-2, then 14 days differentiation; mean +/- s.e.m., n=5. An excerpt:
Tissue dissection: Three areas were dissected from adult rat brains as follows. Rats (170-190 g Fisher 344 males or females, Harlan) were deeply anesthetized with a mixture of ketamine, xylazine, and acepromazine. Animals were decapitated and whole brains removed. First, ˜1.5 mm of each optic nerve were harvested rostral to, but not including, the optic chiasma. The brain was then bisected longitudinally and each hippocampal lobe separated from the overlaying cortical white matter using the natural separation line along the alveus hippocampus. The white matter of the fimbria and subiculum was removed as much as possible. Some white matter remained. Finally, a 1.5 mm wide cortical ribbon containing parietal and frontal segments was dissected longitudinally, proximal to the central fissure. The pial and callosal surfaces were trimmed from each cortical ribbon to remove a majority of the meninges and white matter. […]
To determine if there were progenitors in the optic nerve with a latent ability to generate neurons, optic nerve was harvested, dissociated and fractioned. […] On day 28, cultures were calculated for the presence of neurons (β Tubulin) and those neurons present were scored for BrdU-immunoreactivity. Although many glia rapidly differentiated in the primary culture, clusters of proliferative precursor-like calls were readily detected. […]

For `CC1=C(/C=C/C(C)=C/C=C/C(C)=C/C(=O)O)C(C)(C)CCC1` [RA, all-trans retinoic acid], in assay [1], the “baseline expression of c-fos mRNA” value was “increased”.

As to “FGF-2: basic fibroblast growth factor, human recombinant, prepared in E. coli”, the “β Tubulin-positive neurons, of the total population” value in assay [2] stood at 0.8% +/− 0.3.
